Data taken from ChEMBL document CHEMBL5260854, “Discovery of Novel TRPM8 Blockers Suitable for the Treatment of Somatic and Ocular Painful Conditions: A Journey through pKa and LogD Modulation” (J Med Chem, 2021).
≈ marks a conversion by molar mass, not a printed value. Calls of active or inactive are those of the source. No cut-off for these calls is given here.

What was measured:
[1] = biological target: T1, Transient receptor potential cation channel subfamily M member 8 (Homo sapiens, UniProt Q7Z2W7); assay: Inhibition of human TRPM8 expressed in HEK293 cells assessed as reduction in ethyl 4-methoxy-2-phenylthiazole-5-carboxylate induced Ca2+ efflux preincubated for 5 mins followed by ethyl 4-methoxy-2-phenylthiazole-5-carboxylate addition and measured for 3 mins by FLIPR assay; assay type: cell-based
T1 sequence (Q7Z2W7 whole entry): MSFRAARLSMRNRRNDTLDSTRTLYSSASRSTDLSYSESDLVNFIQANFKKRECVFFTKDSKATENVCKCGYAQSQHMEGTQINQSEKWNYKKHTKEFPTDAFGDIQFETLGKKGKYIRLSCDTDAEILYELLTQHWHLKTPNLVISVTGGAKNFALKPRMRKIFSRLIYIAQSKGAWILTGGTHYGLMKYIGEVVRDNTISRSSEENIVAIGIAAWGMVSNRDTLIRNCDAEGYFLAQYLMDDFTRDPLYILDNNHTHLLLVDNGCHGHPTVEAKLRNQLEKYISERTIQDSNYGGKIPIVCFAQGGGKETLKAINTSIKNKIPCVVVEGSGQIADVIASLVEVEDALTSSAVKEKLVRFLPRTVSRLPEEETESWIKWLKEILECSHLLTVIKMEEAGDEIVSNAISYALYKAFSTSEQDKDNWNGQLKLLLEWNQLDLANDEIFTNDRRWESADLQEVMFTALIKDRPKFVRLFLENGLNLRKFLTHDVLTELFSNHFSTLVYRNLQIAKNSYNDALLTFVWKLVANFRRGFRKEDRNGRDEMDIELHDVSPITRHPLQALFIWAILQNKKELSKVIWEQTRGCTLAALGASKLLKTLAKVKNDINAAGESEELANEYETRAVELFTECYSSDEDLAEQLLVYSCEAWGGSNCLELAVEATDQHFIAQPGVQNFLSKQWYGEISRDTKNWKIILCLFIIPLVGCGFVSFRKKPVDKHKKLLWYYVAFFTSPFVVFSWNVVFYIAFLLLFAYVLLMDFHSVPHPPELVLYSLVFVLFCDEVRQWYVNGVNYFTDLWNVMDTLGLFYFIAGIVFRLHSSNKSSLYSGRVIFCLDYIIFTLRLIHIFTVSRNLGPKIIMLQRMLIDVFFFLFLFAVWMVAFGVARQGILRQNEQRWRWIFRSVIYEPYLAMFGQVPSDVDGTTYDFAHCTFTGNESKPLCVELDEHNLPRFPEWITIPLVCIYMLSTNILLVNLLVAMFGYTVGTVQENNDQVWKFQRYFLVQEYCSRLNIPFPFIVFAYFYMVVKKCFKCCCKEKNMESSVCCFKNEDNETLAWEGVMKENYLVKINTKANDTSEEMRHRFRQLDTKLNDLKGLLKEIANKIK

[2] = Lipophilicity, logP of compound; assay type: physicochemical; details: octanol/water
[3] = Metabolic stability in rat liver microsomes assessed as parent compound remaining after 30 mins; assay type: ADME, Microsome; details: for remaining at 0.5 h: read-out: Stability
[4] = Clearance in rat at 10 mg/kg, iv; assay type: ADME, organism-based; details: in vivo
[5] = Half life in rat at 10 mg/kg, po; assay type: ADME, organism-based; details: in vivo
[6] = Metabolic stability in rat liver microsomes assessed as phase 2 metabolism by measuring half life; assay type: ADME, Microsome
[7] = Volume of distribution at steady state in rat at 10 mg/kg, iv; assay type: ADME, organism-based; details: in vivo, read-out: Vdss
[8] = Dissociation constant, pKa of the compound; assay type: physicochemical
[9] = Metabolic stability in rat liver microsomes assessed as parent compound remaining after 4 hrs; assay type: ADME, Microsome; details: read-out: Stability
[10] = Stability in stimulated gastric fluid at pH 1.2; assay type: physicochemical; details: simulated gi fluid
[11] = Metabolic stability in rat liver microsomes assessed as phase 1 metabolism by measuring half life; assay type: ADME, Microsome
[12] = Cmax in rat at 10 mg/kg, po; assay type: ADME, organism-based; design: dose 10 mg/kg, route po; details: in vivo
[13] = Solubility of compound at pH 7.4; assay type: physicochemical; details: buffer
[14] = Oral bioavailability in rat at 10 mg/kg; assay type: ADME, organism-based; details: in vivo
[15] = Lipophilicity, logD of the compound at pH 7.4; assay type: physicochemical; details: buffer
[16] = Half life in rat at 10 mg/kg, iv; assay type: ADME, organism-based; details: in vivo
[17] = Apparent permeability in HCECs at 0.1%; assay type: ADME, cell-based, HCEC; details: human, not told
[18] = Metabolic stability in human liver S9 fraction assay as half life in presence of NADPH, glutathione, UDPGA and PAPS; assay type: ADME, subcellular
[19] = Volume of distribution at steady state in rat at 5 mg/kg, iv; assay type: ADME, organism-based; details: in vivo, read-out: Vdss
[20] = biological target: Transient receptor potential cation channel subfamily V member 4 (Homo sapiens) (UniProt Q9HBA0); assay: Inhibition of TRPV4 (unknown origin) upto 100 uM
Transient receptor potential cation channel subfamily V member 4 (Homo sapiens), sequence (Q9HBA0 whole entry): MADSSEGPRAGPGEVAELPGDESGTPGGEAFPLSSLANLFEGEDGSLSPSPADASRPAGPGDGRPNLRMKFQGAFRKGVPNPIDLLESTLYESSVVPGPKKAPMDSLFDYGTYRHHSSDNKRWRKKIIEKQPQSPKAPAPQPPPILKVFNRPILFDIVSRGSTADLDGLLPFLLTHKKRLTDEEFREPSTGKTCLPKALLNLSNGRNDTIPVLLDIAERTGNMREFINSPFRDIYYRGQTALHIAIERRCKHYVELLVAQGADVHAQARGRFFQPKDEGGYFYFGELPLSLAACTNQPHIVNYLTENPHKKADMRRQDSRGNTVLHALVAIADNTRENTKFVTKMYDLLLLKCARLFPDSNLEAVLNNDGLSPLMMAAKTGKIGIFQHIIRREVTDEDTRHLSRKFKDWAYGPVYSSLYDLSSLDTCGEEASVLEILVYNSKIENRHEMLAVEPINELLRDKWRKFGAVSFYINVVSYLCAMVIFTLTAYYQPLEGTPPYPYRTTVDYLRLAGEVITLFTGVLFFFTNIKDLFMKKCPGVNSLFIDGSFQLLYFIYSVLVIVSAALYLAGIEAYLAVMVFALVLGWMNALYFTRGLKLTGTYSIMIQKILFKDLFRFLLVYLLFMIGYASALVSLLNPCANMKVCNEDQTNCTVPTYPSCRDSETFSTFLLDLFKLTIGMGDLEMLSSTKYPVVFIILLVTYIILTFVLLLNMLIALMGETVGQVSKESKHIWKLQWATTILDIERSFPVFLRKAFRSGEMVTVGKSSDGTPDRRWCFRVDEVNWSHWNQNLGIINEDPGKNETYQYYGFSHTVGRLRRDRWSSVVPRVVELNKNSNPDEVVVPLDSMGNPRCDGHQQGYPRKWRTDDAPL

[21] = biological target: T1, Transient receptor potential cation channel subfamily M member 8; assay: Inhibition of human TRPM8 expressed in HEK293 cells assessed as reduction in icilin induced Ca2+ efflux preincubated for 5 mins followed by icilin addition and measured for 3 mins by FLIPR assay; assay type: cell-based
[22] = biological target: Transient receptor potential cation channel subfamily M member 3 (Homo sapiens) (UniProt Q9HCF6); assay: Inhibition of TRPM3 (unknown origin) upto 100 uM
[23] = biological target: Transient receptor potential cation channel subfamily A member 1 (Homo sapiens) (UniProt O75762); assay: Inhibition of TRPA1 (unknown origin) upto 100 uM
Transient receptor potential cation channel subfamily A member 1 (Homo sapiens), sequence (O75762 whole entry): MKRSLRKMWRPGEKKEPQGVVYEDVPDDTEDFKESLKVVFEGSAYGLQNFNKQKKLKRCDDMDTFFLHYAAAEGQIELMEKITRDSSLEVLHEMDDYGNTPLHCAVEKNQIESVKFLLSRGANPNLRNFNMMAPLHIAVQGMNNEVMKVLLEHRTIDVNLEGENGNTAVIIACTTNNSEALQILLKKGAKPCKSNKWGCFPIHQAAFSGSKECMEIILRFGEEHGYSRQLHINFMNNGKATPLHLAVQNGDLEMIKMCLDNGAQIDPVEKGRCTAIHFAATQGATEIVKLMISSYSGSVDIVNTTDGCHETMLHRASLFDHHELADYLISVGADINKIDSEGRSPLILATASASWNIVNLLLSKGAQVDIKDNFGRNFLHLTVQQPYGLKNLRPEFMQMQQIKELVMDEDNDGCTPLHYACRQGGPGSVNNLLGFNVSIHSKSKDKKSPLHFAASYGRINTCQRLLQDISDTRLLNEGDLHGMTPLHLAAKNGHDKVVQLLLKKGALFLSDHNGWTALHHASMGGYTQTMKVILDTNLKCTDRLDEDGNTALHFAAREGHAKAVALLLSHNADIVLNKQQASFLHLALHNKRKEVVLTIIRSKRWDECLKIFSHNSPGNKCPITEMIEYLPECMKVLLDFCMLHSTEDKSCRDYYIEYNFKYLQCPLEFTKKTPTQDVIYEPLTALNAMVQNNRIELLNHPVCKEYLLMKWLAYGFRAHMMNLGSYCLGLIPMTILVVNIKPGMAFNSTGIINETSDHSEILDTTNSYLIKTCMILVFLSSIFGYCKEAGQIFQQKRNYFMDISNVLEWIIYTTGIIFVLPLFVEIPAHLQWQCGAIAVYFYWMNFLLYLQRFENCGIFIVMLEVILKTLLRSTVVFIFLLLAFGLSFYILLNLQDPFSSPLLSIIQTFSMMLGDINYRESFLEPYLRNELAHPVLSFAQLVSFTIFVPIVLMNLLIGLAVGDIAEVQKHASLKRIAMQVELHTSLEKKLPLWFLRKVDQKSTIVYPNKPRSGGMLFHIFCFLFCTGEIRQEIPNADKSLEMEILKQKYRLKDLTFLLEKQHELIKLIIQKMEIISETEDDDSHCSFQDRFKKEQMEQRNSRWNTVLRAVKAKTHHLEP

[24] = Clearance in rat at 5 mg/kg, iv; assay type: ADME, organism-based; details: in vivo
[25] = biological target: Transient receptor potential cation channel subfamily V member 1 (Homo sapiens) (UniProt Q8NER1); assay: Inhibition of TRPV1 (unknown origin) upto 100 uM
Transient receptor potential cation channel subfamily V member 1 (Homo sapiens), sequence (Q8NER1 whole entry): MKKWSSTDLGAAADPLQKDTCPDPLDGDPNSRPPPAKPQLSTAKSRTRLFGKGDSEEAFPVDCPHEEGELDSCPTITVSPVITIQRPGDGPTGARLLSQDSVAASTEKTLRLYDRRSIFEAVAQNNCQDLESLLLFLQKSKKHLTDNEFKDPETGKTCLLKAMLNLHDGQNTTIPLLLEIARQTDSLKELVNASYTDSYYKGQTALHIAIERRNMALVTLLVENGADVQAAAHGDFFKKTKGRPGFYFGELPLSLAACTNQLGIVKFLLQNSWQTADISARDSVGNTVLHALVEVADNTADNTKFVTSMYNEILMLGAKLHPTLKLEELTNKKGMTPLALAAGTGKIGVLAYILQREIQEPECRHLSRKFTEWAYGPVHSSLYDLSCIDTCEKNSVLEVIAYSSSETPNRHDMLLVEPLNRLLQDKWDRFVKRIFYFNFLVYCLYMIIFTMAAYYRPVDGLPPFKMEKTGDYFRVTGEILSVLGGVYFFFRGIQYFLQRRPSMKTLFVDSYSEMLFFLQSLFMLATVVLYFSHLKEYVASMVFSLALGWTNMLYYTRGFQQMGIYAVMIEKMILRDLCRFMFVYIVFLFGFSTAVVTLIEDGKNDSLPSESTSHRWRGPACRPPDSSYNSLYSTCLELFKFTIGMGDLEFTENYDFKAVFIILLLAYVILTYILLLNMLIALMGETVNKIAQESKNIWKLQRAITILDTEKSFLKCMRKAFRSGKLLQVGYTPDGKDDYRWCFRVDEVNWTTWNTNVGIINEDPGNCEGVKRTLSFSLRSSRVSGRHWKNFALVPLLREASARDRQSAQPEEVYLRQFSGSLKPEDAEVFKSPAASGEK

[26] = biological target: T1, Transient receptor potential cation channel subfamily M member 8; assay: Inhibition of human TRPM8 expressed in HEK293 cells assessed as reduction in cold stimulated Ca2+ efflux preincubated for 5 mins followed by cold stimulation and measured for 3 mins; assay type: cell-based
[27] = Half life in rat at 5 mg/kg, iv; assay type: ADME, organism-based; details: in vivo
[28] = Volume of distribution at steady state in rat at 3 mg/kg, iv; assay type: ADME, organism-based; details: in vivo, read-out: Vdss
[29] = Stability in human hepatocytes assessed as half life; assay type: ADME, cell-based, Hepatocyte
[30] = Half life in rat at 3 mg/kg, iv; assay type: ADME, organism-based; details: in vivo
[31] = Clearance in rat at 3 mg/kg, iv; assay type: ADME, organism-based; details: in vivo
[32] = Stability in human plasma assessed as compound remaining after 60 mins; assay type: ADME, cell-free; details: read-out: Stability
[33] = Stability in rat plasma assessed as compound remaining after 60 mins; assay type: ADME, cell-free; details: read-out: Stability
[34] = biological target: Sodium channel protein type 9 subunit alpha (Homo sapiens) (UniProt Q15858); assay: Inhibition of Nav1.7 (unknown origin)

Work on `CCOC(=O)c1oc(-c2ccc(Cl)cc2)nc1O` yielded an IC50 [1] of over 100000 nM.

`CSc1cc(-c2ccc(Cl)cc2)[nH]n1` showed a logP [2] of 3.57 and a remaining at 0.5 h [3] of 41%.

`CCOC(=O)c1ccc(-c2cccc(F)c2)cc1O` gave an IC50 [1] of over 100000 nM.

Compound `CCOC(=O)c1sc(-c2cccc(F)c2)nc1O` has an IC50 [1] of 39 nM, a clearance [4] of 24 mL/min/kg and a half-life [5] of 137 min. For the same compound, the half-life [6] was over 5 min, the Vd [7] was 0.259 L/kg and the pKa [8] was 4.7. For the same compound, the remaining at 4 h [9] was 105%, the Stability [10] was 50% and the half-life [11] was 27 min. For the same compound, the Cmax [12] was 2140 ng/mL, the solubility [13] was 0.08 mM (≈ 21.4 µg/mL) and the bioavailability [14] was 15%. The logD [15] was 1.5 and the half-life [16] was 33.6 min.

`O=C(O)c1sc(-c2ccccc2)nc1O` gave an IC50 [1] of over 100000 nM.

`CCOC(=O)c1sc(-c2cccc(Cl)c2)nc1O` gave an IC50 [1] of 1300 nM.

In the case of `CCN(CC)c1ccc2c(-c3ccccc3C(=O)O)c3ccc(=[N+](CC)CC)cc-3oc2c1.[Cl-]` [RHODAMINE], the Papp at 0.1 % [17] is reported as 36.6 ×10⁻⁶ cm/s.

Compound `Cc1nc(-c2sc(-c3cccc(F)c3)nc2O)no1` has an IC50 [1] of 1800 nM.

`CCOC(=O)c1sc(-c2ccccc2)nc1O` showed an IC50 [1] of 32 nM.

`O=C(c1sc(-c2cccc(F)c2)nc1O)N1CCCO1` showed a pKa [8] of 6.3, a solubility [13] of 7.1 mM (≈ 2090 µg/mL) and a logD [15] of 0.82. It also gave a half-life [18] of over 120 min and a Papp at 0.1 % [17] of 16.4 ×10⁻⁶ cm/s.

For `CCC(=O)c1sc(-c2cccc(F)c2)nc1O`, the IC50 [1] was 29 nM, the Vd [19] was 1.69 L/kg and the inhibition [20] was “inactive”. The IC50 [21] was 33 nM, the half-life [5] was 188 min and the half-life [6] was 136 min. For the same compound, the inhibition [22] was “inactive”, the inhibition [23] was “inactive” and the clearance [24] was 5.31 mL/min/kg. The inhibition [25] was “inactive”, the half-life [11] was 118 min and the IC50 [26] was 8.5 nM. The Cmax [12] was 10700 ng/mL, the solubility [13] was 15.2 mM (≈ 3820 µg/mL) and the bioavailability [14] was 98.8%. It also gave a logD [15] of 0.44 and a half-life [27] of 189 min.

Compound `COC(=O)c1nc(-c2ccccc2)sc1O` has an IC50 [1] of over 100000 nM.

Work on `CC(C)CC(=O)c1sc(-c2cccc(F)c2)nc1O` yielded an IC50 [1] of 289 nM, a half-life [6] of 156 min and a pKa [8] of 4.3. The half-life [11] was 49.8 min and the logD [15] was 1.35.

`CCn1nnnc1-c1sc(-c2cccc(F)c2)nc1O` gave an IC50 [1] of over 100000 nM.

`CCOC(=O)c1sc(-c2ccccc2)nc1OC` showed an IC50 [1] of over 100000 nM.

Work on `CCON(C)C(=O)c1sc(-c2cccc(F)c2)nc1O` yielded an IC50 [1] of 1680 nM.

With `CCNC(=O)c1sc(-c2ccccc2)nc1O` the IC50 [1] was over 100000 nM.

With `COC(=O)c1sc(-c2ccccc2)nc1O` the logP [2] was 3.77, the pKa [8] was 6.3 and the logD [15] was 2.5. It also gave a remaining at 0.5 h [3] of 42%.

Compound `Oc1nc(-c2cccc(F)c2)sc1-c1nn[nH]n1` has an IC50 [1] of over 100000 nM.

For `O=C(c1sc(-c2cccc(F)c2)nc1O)N1CCOCC1`, the IC50 [1] was 12200 nM.

`CCn1nnc(-c2sc(-c3c(Cl)cccc3Cl)nc2O)n1` showed an IC50 [1] of 16500 nM.

`Cc1nnc(-c2sc(-c3cccc(F)c3)nc2O)o1` showed an IC50 [1] of 9100 nM.

For `CCn1nnc(-c2sc(-c3cccc(F)c3)nc2O)n1`, the Vd [28] was 0.082 L/kg, the half-life [5] was 307 min and the half-life [6] was over 5 min. For the same compound, the pKa [8] was 5.9, the half-life [29] was 56.7 min and the half-life [11] was 38 min. It also gave a Cmax [12] of 47 ng/mL, a solubility [13] of 0.631 mM (≈ 184 µg/mL) and a bioavailability [14] of 1%. It also gave a logD [15] of 2, a half-life [30] of 44.4 min and a clearance [31] of 3.11 mL/min/kg. It also gave a half-life [3] of under 30 min, a remaining at 1 h [32] of 95% and a remaining at 1 h [33] of 92%.

`CCOC(=O)c1sc(-c2ccccc2)nc1N` showed an IC50 [1] of over 100000 nM.

With `CC(=O)c1sc(-c2cccc(F)c2)nc1O` the half-life [6] was 108 min, the pKa [8] was 4.1 and the half-life [11] was 35.2 min. For the same compound, the logD [15] was 0.77.

`CCOC(=O)c1cnc(-c2ccccc2)s1` showed an IC50 [1] of over 100000 nM.

Compound `CCOC(=O)Cc1sc(-c2ccccc2)nc1O` has an IC50 [1] of 950 nM.

`CCn1nnc(-c2sc(-c3cccc(O)c3)nc2O)n1` showed an IC50 [1] of 239 nM.

Compound `CCn1nnc(-c2sc(-c3ccc(F)cc3)nc2O)n1` has an IC50 [1] of 286 nM.

With `O=C(c1sc(-c2ccccc2O)nc1O)N1CCCO1` the inhibition [20] was “inactive”, the IC50 [21] was 4.5 nM and the inhibition [34] was “inactive”. For the same compound, the pKa [8] was 9.3, the inhibition [23] was “inactive” and the inhibition [25] was “inactive”. For the same compound, the solubility [13] was 9.7 mM (≈ 2840 µg/mL), the logD [15] was 0.77 and the half-life [18] was 53 min. It also gave a Papp at 0.1 % [17] of 48.3 ×10⁻⁶ cm/s.

For `O=C(c1sc(-c2cccc(F)c2)nc1O)N1CCCCCO1`, the IC50 [1] was 32 nM.

Work on `CCOC(=O)c1sc(-c2ccccc2)nc1CO` yielded an IC50 [1] of over 100000 nM.

For `CCN(C(=O)/C=C/c1cccc([N+](=O)[O-])c1)c1ccccc1`, the logP [2] was 3.6, the IC50 [1] was 575 nM and the remaining at 0.5 h [3] was 32%.

In the case of `CCCC(=O)c1sc(-c2cccc(F)c2)nc1O`, the half-life [6] is reported as 127 min, the pKa [8] is reported as 4.31 and the half-life [11] is reported as 39.3 min. It also gave a logD [15] of 1.18.

In the case of `Cn1nnc(-c2sc(-c3cccc(F)c3)nc2O)n1`, the IC50 [1] is reported as 214 nM.

`CCn1nnc(-c2sc(-c3cccc(N)c3)nc2O)n1` gave an IC50 [1] of 61 nM.

Compound `CC(C)C(=O)c1sc(-c2cccc(F)c2)nc1O` has a half-life [6] of 97.8 min, a pKa [8] of 4.27 and a half-life [11] of 59.1 min. The logD [15] was 0.91.

For `CCn1nnc(-c2sc(-c3ccc(O)cc3)nc2O)n1`, the IC50 [1] was 11600 nM.

Compound `COc1cccc(NS(=O)(=O)c2c(C)cc(C)c([N+](=O)[O-])c2C)c1` has a logP [2] of 4.33, a pKa [8] of 7.8 and a logD [15] of 3.19. It also gave a remaining at 0.5 h [3] of 29%.

With `O=C(O)c1ccc(C(=O)O)c(-c2c3ccc(=O)cc-3oc3cc(O)ccc23)c1` [6-Carboxyfluorescein] the Papp at 0.1 % [17] was 1.9 ×10⁻⁶ cm/s.

For `O=C(c1sc(-c2cccc(F)c2)nc1O)N1CCCOC1`, the IC50 [1] was over 100000 nM.

With `CCn1nnc(-c2sc(-c3ccc(Cl)cc3)nc2O)n1` the IC50 [1] was 7550 nM.
